Reference: US5776886A, “Intravaginal preparation containing physiologically active peptide” (Teikoku Seiyaku Kabushiki Kaisha, priority 1993, dated 1998)

How the values were obtained:
Assay type in all cases: in vivo, Wistar rats
[1] = tested on: calcium level in the serum; test: Experiment 2: effects of various bases on serum calcium reduction; conditions: for Reduction rate (%) of calcium level in the serum: S-970 + citric acid, intravaginal suppository 20 μg, rats
Description: (§1) An intravaginal suppository was administered into the rat's vagina, and the blood was collected periodically (2, 4 and 6 hours after administration of the test preparation).
(§2) The serum was separated, and the calcium level in the serum was determined by using a kit for determination of calcium (Calcium C Test Wako; manufactured by Wako Pure Chemical Industries, Ltd.) (n=3).
In the same manner as in Experiment 1, each intravaginal suppository was administered to the rat's vagina, and the blood was collected periodically (2, 4 and 6 hours after administration of intravaginal suppository), and the calcium level in the serum thereof was determined (n=4).

[2] = tested on: calcium level in the serum; test: Experiment 3: effects of various sucrose fatty acid esters on serum calcium reduction; conditions: for Reduction rate (%) of calcium level in the serum: rats
Description: as §1, §2
In the same manner, there were prepared various sucrose fatty acid esters having the same HLB value but being combined with a different fatty acid (Table B), and four kinds of intravaginal suppositories for rats were prepared by using each 100 mg of sucrose fatty acid ester.
In the same manner as in Experiment 1, each intravaginal suppository was administered to the rat's vagina, and the blood was collected periodically 2, 4 and 6 hours after administration of intravaginal suppository), and the calcium level in the serum thereof was determined (n=4).

[3] = tested on: calcium level in the serum; test: Experiment 4: effects of the concentration of sucrose fatty acid ester on serum calcium reduction
Description: as §1, §2
Human calcitonin (2 mg) was precisely measured, and thereto were added citric acid (100 mg) and Ryoto-Sugar Ester S-970 (50 mg, 100 mg or 400 mg), and the mixture was mixed well.
In the same manner as in Experiment 1, each intravaginal suppository was administered to the rat's vagina, and the blood was collected periodically (2 and 4 hours after administration of intravaginal suppository), and the calcium level in the serum thereof was determined (n=3).

Human calcitonin
Reduction rate (%) of calcium level in the serum ([1]; base Cacao butter, 6 hr): 8.3% | Reduction rate (%) of calcium level in the serum ([1]; base Pharmasol B-105, 2 hr): 13.4% | Reduction rate (%) of calcium level in the serum ([1]; base Pharmasol B-105, 4 hr): 14.8% | Reduction rate (%) of calcium level in the serum ([1]; base Pharmasol B-105, 6 hr): 10.6% | Reduction rate (%) of calcium level in the serum ([1]; base Witepsol H-15, 2 hr): 16.8% | Reduction rate (%) of calcium level in the serum ([1]; base Witepsol H-15, 4 hr): 17.7% | Reduction rate (%) of calcium level in the serum ([1]; base Witepsol H-15, 6 hr): 10.4% | Reduction rate (%) of calcium level in the serum ([1]; base Witepsol S-55, 2 hr): 16.5% | Reduction rate (%) of calcium level in the serum ([1]; base Witepsol S-55, 4 hr): 22.5% | Reduction rate (%) of calcium level in the serum ([1]; base Witepsol S-55, 6 hr): 13.0% | Reduction rate (%) of calcium level in the serum ([1]; base Witepsol W-35, 2 hr): 6.6% | Reduction rate (%) of calcium level in the serum ([1]; base Witepsol W-35, 4 hr): 20.4% | Reduction rate (%) of calcium level in the serum ([1]; base Witepsol W-35, 6 hr): 13.2% | promotion effect on absorption of calcitonin ([1]; combination of sucrose fatty acid ester and citric acid, five bases): extremely excellent promotion effect on absorption of calcitonin regardless of any base to be used | Reduction rate (%) of calcium level in the serum ([2]; Ryoto-Sugar Ester (L-1695), HLB 16, lauric acid, + citric acid, intravaginal suppository 20 μg, 2 hr): 12.8% | Reduction rate (%) of calcium level in the serum ([2]; Ryoto-Sugar Ester (L-1695), HLB 16, lauric acid, + citric acid, intravaginal suppository 20 μg, 4 hr): 13.4% | Reduction rate (%) of calcium level in the serum ([2]; Ryoto-Sugar Ester (L-1695), HLB 16, lauric acid, + citric acid, intravaginal suppository 20 μg, 6 hr): 11.4% | Reduction rate (%) of calcium level in the serum ([2]; Ryoto-Sugar Ester (S-370), HLB 3, stearic acid, + citric acid, intravaginal suppository 20 μg, 2 hr): 13.4% | Reduction rate (%) of calcium level in the serum ([2]; Ryoto-Sugar Ester (S-370), HLB 3, stearic acid, + citric acid, intravaginal suppository 20 μg, 4 hr): 18.2% | Reduction rate (%) of calcium level in the serum ([2]; Ryoto-Sugar Ester (S-370), HLB 3, stearic acid, + citric acid, intravaginal suppository 20 μg, 6 hr): 11.4% | Reduction rate (%) of calcium level in the serum ([2]; Ryoto-Sugar Ester (S-570), HLB 5, stearic acid, + citric acid, intravaginal suppository 20 μg, 2 hr): 12.8% | Reduction rate (%) of calcium level in the serum ([2]; Ryoto-Sugar Ester (S-570), HLB 5, stearic acid, + citric acid, intravaginal suppository 20 μg, 4 hr): 17.2% | Reduction rate (%) of calcium level in the serum ([2]; Ryoto-Sugar Ester (S-570), HLB 5, stearic acid, + citric acid, intravaginal suppository 20 μg, 6 hr): 12.0% | Reduction rate (%) of calcium level in the serum ([2]; Ryoto-Sugar Ester (S-770), HLB 7, stearic acid, + citric acid, intravaginal suppository 20 μg, 2 hr): 13.6% | Reduction rate (%) of calcium level in the serum ([2]; Ryoto-Sugar Ester (S-770), HLB 7, stearic acid, + citric acid, intravaginal suppository 20 μg, 4 hr): 14.8% | Reduction rate (%) of calcium level in the serum ([2]; Ryoto-Sugar Ester (S-770), HLB 7, stearic acid, + citric acid, intravaginal suppository 20 μg, 6 hr): 11.8% | Reduction rate (%) of calcium level in the serum ([2]; Ryoto-Sugar Ester (S-970), HLB 9, stearic acid, + citric acid (Table 3), intravaginal suppository 20 μg, 2 hr): 12.2% | Reduction rate (%) of calcium level in the serum ([2]; Ryoto-Sugar Ester (S-970), HLB 9, stearic acid, + citric acid (Table 3), intravaginal suppository 20 μg, 4 hr): 17.4% | Reduction rate (%) of calcium level in the serum ([2]; Ryoto-Sugar Ester (S-970), HLB 9, stearic acid, + citric acid (Table 3), intravaginal suppository 20 μg, 6 hr): 11.8% | Reduction rate (%) of calcium level in the serum ([2]; Ryoto-Sugar Ester (S-1670), HLB 16, stearic acid, + citric acid, intravaginal suppository 20 μg, 2 hr): 11.4% | Reduction rate (%) of calcium level in the serum ([2]; Ryoto-Sugar Ester (S-1670), HLB 16, stearic acid, + citric acid, intravaginal suppository 20 μg, 4 hr): 16.4% | Reduction rate (%) of calcium level in the serum ([2]; Ryoto-Sugar Ester (S-1670), HLB 16, stearic acid, + citric acid, intravaginal suppository 20 μg, 6 hr): 12.6% | Reduction rate (%) of calcium level in the serum ([2]; Ryoto-Sugar Ester L-595 + L-1695 3:2, HLB 9, lauric acid, + citric acid, intravaginal suppository, 2 hr): 11.0% | Reduction rate (%) of calcium level in the serum ([2]; Ryoto-Sugar Ester L-595 + L-1695 3:2, HLB 9, lauric acid, + citric acid, intravaginal suppository, 4 hr): 14.4% | Reduction rate (%) of calcium level in the serum ([2]; Ryoto-Sugar Ester L-595 + L-1695 3:2, HLB 9, lauric acid, + citric acid, intravaginal suppository, 6 hr): 9.7% | Reduction rate (%) of calcium level in the serum ([2]; Ryoto-Sugar Ester P-070 + P-1670 4:5, HLB 9, palmitic acid, + citric acid, intravaginal suppository, 2 hr): 8.2% | Reduction rate (%) of calcium level in the serum ([2]; Ryoto-Sugar Ester P-070 + P-1670 4:5, HLB 9, palmitic acid, + citric acid, intravaginal suppository, 4 hr): 17.3% | Reduction rate (%) of calcium level in the serum ([2]; Ryoto-Sugar Ester P-070 + P-1670 4:5, HLB 9, palmitic acid, + citric acid, intravaginal suppository, 6 hr): 13.8% | Reduction rate (%) of calcium level in the serum ([2]; Ryoto-Sugar Ester S-370 + S-1670 5:6, HLB 9, stearic acid, + citric acid, intravaginal suppository, 2 hr): 6.9% | Reduction rate (%) of calcium level in the serum ([2]; Ryoto-Sugar Ester S-370 + S-1670 5:6, HLB 9, stearic acid, + citric acid, intravaginal suppository, 4 hr): 15.3% | Reduction rate (%) of calcium level in the serum ([2]; Ryoto-Sugar Ester S-370 + S-1670 5:6, HLB 9, stearic acid, + citric acid, intravaginal suppository, 6 hr): 12.3% | Reduction rate (%) of calcium level in the serum ([2]; Ryoto-Sugar Ester S-970 1:0 (control of Table B), HLB 9, stearic acid, + citric acid (Table 4), intravaginal suppository, 2 hr): 6.3% | Reduction rate (%) of calcium level in the serum ([2]; Ryoto-Sugar Ester S-970 1:0 (control of Table B), HLB 9, stearic acid, + citric acid (Table 4), intravaginal suppository, 4 hr): 11.6% | Reduction rate (%) of calcium level in the serum ([2]; Ryoto-Sugar Ester S-970 1:0 (control of Table B), HLB 9, stearic acid, + citric acid (Table 4), intravaginal suppository, 6 hr): 11.0% | promotion effects on absorption of calcitonin ([2]; combination of sucrose fatty acid ester and citric acid, esters of different HLB value and fatty acid): not affected by either the HLB value of the sucrose fatty acid ester to be used or by the kinds of the fatty acids to be combined | calcium level in the blood ([3]; sucrose fatty acid ester 1, 2 or 8 w/w % with citric acid): reduced at any concentration of the sucrose fatty acid ester to be used | Reduction rate (%) of calcium level in the serum ([3]; sucrose fatty acid ester (S-970) 1 w/w %, citric acid 100 mg per 5.00 g, intravaginal suppository 20 μg, rats, 2 hr): 10.8%
